Results reported in US5656600A, “α-ketoamide derivatives as inhibitors of thrombosis” (Corvas International, Inc., priority 1993, dated 1997).

Legend:
thrombin = thrombin (Homo sapiens, UniProt P00734); details: literature values; read-out: Ki (thrombin), reported; cited from earlier work
Rat Venous Stasis Model = assay: Venous stasis in rats (thromboplastin plus stasis, inferior vena cava); format: in vivo; details: for % Clot: mean ± S.E.M.
Procedure: This is one of the most commonly used models in the evaluation of antithrombotic compounds. Hladovec, J. Thromb. […] Talbot, M. D., et. al., Thromb.
Male Harlan Sprague Dawley rats (420-450 g) were acclimated at least 72 hours prior to use. The animals were fasted for 12 hours prior to surgery with free access to water. The animals were anesthetized with a sodium pentobarbital (Nembutal) given intraperitoneally at a dose of 50 mg/kg body weight and placed on a isothermal pad to maintain body temperature. The level of anesthesia was monitored every 15 minutes by: neuro-response to a tail pinch, respiration and body core temperature. The desired depth of surgical anesthesia was maintained by administering subsequent doses (5 mg/kg) intravenously. The left femoral artery was catheterized with polyethylene tubing (PE50) using standard procedures for blood pressure monitoring and blood sampling. The left and right femoral veins were catheterized with PE50 tubing for delivery of anesthetic and test compounds respectively.
Blood pressure, heart rate, core temperature and respiration were monitored continuously.
The abdomen of the animals is opened by making a vertical midline incision followed by isolation of the IVC using dissection. The segment extends from below the renal to above the iliac vessels (about 2 cm in length). The peripheral blood vessels are tied off and a ligature is loosely placed at the distal and proximal ends of the isolated segment. Rabbit brain thromboplastin (RBT) (Sigma Chemical Co., St. Louis MO) is prepared by resuspending the contents of the vial with 2 mL of sterile saline pre-warmed to 37° C. At the end of the 30 minute infusion period, RBT is systemically administered as a bolus injection (1.5 mL/kg) via the femoral catheter. Stasis is induced within the isolated IVC segment by securing the proximal and distal ligature 10 sec following the administration of the RBT. Following a 30 minute period of stasis the tied off IVC segment is removed and the contents weighed. Clot formation was defined as %clot: [Weight of the isolated clot/(Weight of the intact segment-the weight of the empty segment)]×100. This method was used to correct for slight differences in segment size and fluid content.
Following termination of the experiment the animal was euthanized with a 120 mg/kg dose of Nembutal.

washed human platelets = assay: Thrombin-induced aggregation in washed human platelets; format: cell-based
Procedure: Washed human platelets were prepared from freshly isolated venous blood obtained from normal, healthy volunteers who had not taken any medication which might affect platelet function, according to the procedure of Connolly, T. M. et al., J. Biol. Chem., 267:6893 (1992). Inhibitors, were added in a volume of 20 μL to 350 μL of prewarmed washed platelets in a siliconized glass cuvette (Chronolog Corp., Havertown, PA) followed by 10 μL of 0.25 M CaCl2. The rate and extent of aggregation were measured for 5-15 minutes by the change in light transmission in a stirred cuvette, following the addition of 20 μL of […] (final concentration 2 nM), using a Chronolog Whole Blood Aggregometer equipped with the Aggro/Link data acquisition system (Chronolog Corp., Hayertown, PA). The extent of inhibition was determined by measuring the change in the amplitude (extent) of the aggregation response compared to the control (uninhibited) response over the 1 minute period following the addition of thrombin.

(D--Phe)--Pro--Arg--Pro--(Gly4 --Asn--Gly--Asp--Phe--Glu--Glu--IIe--Pro--Glu--Glu--Tyr--Leu--OH [Compound 25]
Ki (thrombin): 2.56 nM
% Clot (Rat Venous Stasis Model; 0.1 mg/kg i.v. bolus + 40 μg/kg/min i.v. infusion): 25.75 ± 3.71%
% Clot (Rat Venous Stasis Model; 0.1 mg/kg i.v. bolus + 60 μg/kg/min i.v. infusion): 26.50 ± 3.59%
% Clot (Rat Venous Stasis Model; 0.1 mg/kg i.v. bolus + 80 μg/kg/min i.v. infusion): 25.75 ± 0.41%
effect on venous thrombus formation induced by stasis and thromboplastin (Rat Venous Stasis Model; summary in words): did not have any effect of thrombus formation
persistence of inhibition of aggregation over the 15 minute course of the assay (washed human platelets; 20nM (compound 8), same or higher concentrations (Hirulog-1), FIG. 4): did not cause sustained inhibition of the aggregation response
IC50 (washed human platelets; α-thrombin 2 nM, extent of aggregation over 1 minute after thrombin, mean ± standard deviation, three determinations): 16 ± 3 nM
